Values quoted from earlier work in paper PMC7111419 (European Journal of Medicinal Chemistry, 2019).
Like-named read-outs stand apart in the source and are kept apart here.

Columns and labels:
rat neutrophils = details: read-out: IC50, βGLU release; cited from earlier work
salivary βGLU = details: 16 subjects with aggressive periodontitis; cited from earlier work
male albino Wistar rats = details: 7.5 mg/kg body weight/day intragastric, 7 days; cited from earlier work
SENCAR mice = details: cited from earlier work
βGLU = details: cited from earlier work
female Wistar rats = details: i.p. pre or cotreatment, 3 mg/ml, 10 mg/ml or 10 mg/0.5 ml, 6 days; cited from earlier work
human liver-derived βGLU = details: 1 mM; cited from earlier work
βGLU in breast milk = details: 10 μM; cited from earlier work
Wistar rats = details: 0.8 μg inhibitor, 3 mg/kg diclofenac; cited from earlier work
E. coli βGLU = details: cited from earlier work
neutrophil-derived βGLU = details: 1 μM; cited from earlier work
E. coli cells = details: 100 μM; cited from earlier work

## C[C@@H]1C(=O)O[C@H]2[C@H](O)[C@@]34[C@H]5C[C@@H](C(C)(C)C)[C@]36[C@@H](OC(=O)[C@@H]6O)O[C@@]4(C(=O)O5)[C@@]12O [ginkgolide B]
Rat neutrophils
  IC50: 6.63 µM

## doxycycline hyclate
Salivary βGLU
  effect on salivary βGLU activity: inefficient

## Cc1ccc(C(C)C)c(O)c1 [Compound 54, thymol]
Male albino Wistar rats
  activities of lysosomal enzymes (βGLU, β-galactosidase, cathepsin B and D) in serum and heart: potently inhibited to near-normal

## O=C(O)[C@@H](O)[C@H]1OC(=O)[C@H](O)[C@H]1O [Compound 5, D-saccharic acid-1,4-lactone]
SENCAR mice
  reduction of DMBA-induced oxidative DNA damage and mutations in codon 61 of Ha-ras gene: up to 78%
βGLU; value recurrent in literature
  IC50: ~40 µM
Female Wistar rats
  severity of CPT-11 induced small-intestine mucosal damage: reduced the severity
Human liver-derived βGLU
  inhibition of hydrolytic action on quercetin glucuronides: completely inhibited
βGLU in breast milk
  inhibition of βGLU in breast milk: over 90%

## COc1ccc(NC(=S)N(CCO)Cc2cc3cc(C)cc(C)c3[nH]c2=O)cc1 [Compound 152]
Wistar rats
  fold reduction in severity of diclofenac-induced anastomotic leakage: 2 fold
E. coli βGLU
  fold increased potency vs glucaro-δ-lactam 61: 100 fold

## O=C(O)c1ccccc1O [salicylic acid, reference compound]
neutrophil-derived βGLU
  inhibition: 25%
βGLU; 1 mM
  inhibition: 24.77%

## O=C(Cn1c(-c2ccccn2)nc2ccccc21)c1ccc(Cl)cc1 [Compound 4-Cl]
E. coli cells
  cytotoxicity to E. coli cells: cytotoxicity
βGLU
  IC50: 32.1 µM
